The conditions of data set [1]: mouse, in vivo. As for the experimental part:
C57BL/6J female mice were fed on high fat diet for 13 weeks before the initiation of the SEQ ID NO: 63 treatment. […] Both hypercholesterolemic and normal mice were treated i.p. twice weekly with 5 mg/kg SEQ ID NO: 63 and the corresponding mismatch control for a study period of 5½ weeks. Blood samples were collected weekly and total plasma cholesterol was measured during the entire course of the study. Upon sacrificing the mice, liver and blood samples were prepared for total RNA extraction, miRNA and mRNA quantification, assessment of the serum transaminase levels, and liver histology.
Serum from each individual mouse was prepared as follows: Blood samples were stored at room temperature for 2 h before centrifugation (10 min, 3000 rpm at room temperature). After centrifugation, serum was harvested and frozen at −20° C.
ALT and AST measurement was performed in 96-well plates using ALT and AST reagents from ABX Pentra according to the manufacturer's instructions. In short, serum samples were diluted 2.5 fold with H2O and each sample was assayed in duplicate. After addition of 50 μl diluted sample or standard (multical from ABX Pentra) to each well, 200 μl of 37° C. AST or ALT reagent mix was added to each well. Kinetic measurements were performed for 5 min with an interval of 30 s at 340 nm and 37° C. using a spectrophotometer.

A further data set relates to miR-122. It is filed as in vivo, mouse. The text has this: Liver cryo-sections from treated animals were subjected to in situ hybridizations for detection and localization of miR-122 and SEQ ID NO: 61 (FIG. 14). A probe complementary to miR-122 could detect miR-122a. A second probe was complementary to SEQ ID NO: 61. Shown in FIG. 14 is an overlay, in green is distribution and apparent amounts of miR-122a and SEQ ID NO: 61 and blue is DAPI nuclear stain, at 10× magnification. 100× magnifications reveal the intracellular distribution of miR-122a and SEQ ID NO: 61 inside the mouse liver cells.

Data set [2] is classed as in vitro ADME. The conditions noted are these: 96 h. As for the experimental part: LNA oligonucleotide stability was tested in plasma from human or rats (it could also be mouse, monkey or dog plasma). In 45 μl plasma, 5 μl LNA oligonucleotide is added (at a final concentration of 20 μM). The LNA oligonucleotides are incubated in plasma for times ranging from 0 to 96 hours at 37° C.
At the indicated time the sample were snap frozen in liquid nitrogen. 2 μL (equals […]) LNA oligonucleotide in plasma was diluted by adding 15 μL of water and 3 μL 6× loading dye (Invitrogen). As marker a 10 bp ladder (Invitrogen, USA 10821-015) is used. To 1 μl ladder, 1 μl 6× loading and 4 μl water is added. The samples are mixed, heated to 65° C. for 10 min and loaded to a pre-run gel (16% acrylamide, 7 M UREA, 1×TBE, pre-run at 50 Watt for 1 h) and run at 50-60 Watt for […]. Subsequently, the gel is stained with 1× SyBR gold (molecular probes) in 1×TBE for 15 min. The bands were visualised using a phosphoimager from BioRad.
Stability of SEQ ID NO: 61 and SEQ ID NO: 61/miR-122a duplex were tested in mouse plasma at 37° C. over 96 hours. Shown in FIG. 12 is a SYBR-Gold stained PAGE.

l = locked nucleic acid (LNA); d = 2'-deoxy (DNA)

“5′-CcAttGTcaCaCtCC-3′ (antisense CCATTGTCACACTCC; sugars from the 5' end ldlddllddldldll, backbone and methylation of C not given here) [SEQ ID NO: 63]”: in data set [1], the “ALT level (in words)” value is listed as “possibly elevated ALT level”; the “alanine and aspartate aminotransferase (ALT and AST) levels compared to saline (in words)” value is “No changes”.

As for “5′-ccAttGtcAcaCtcCa-3′ (antisense CCATTGTCACACTCCA; sugars from the 5' end ddlddlddlddlddld, backbone and methylation of C not given here) [SEQ ID NO: 61]”, the “miR-122 staining pattern in liver sections (in words)” value with miR-122 (liver cryo-sections from treated mice versus saline) is “significantly reduced patchy staining pattern”. In the data set with miR-122 (mouse, in vivo), the “intracellular distribution of the oligonucleotide in hepatocytes (in words)” value is given as “evenly distributed in the entire cytoplasm”. Also, the “stability in mouse plasma (in words)” value in data set [2] is “completely stable over 96 hours”.

Source of the values: patent US8440637B2, “Combination treatment for the treatment of hepatitis C virus infection” (priority 2007, dated 2013).
